Source: US20050043315A1, “Aminopyrimidine compounds, processes for their preparation and pharmaceutical compositions containing them” (priority 2002, published 2005)

SMILES	melting point
CC(C)n1nc(-c2cnc(NC(=O)C3CC3)nc2-c2ccccc2)ccc1=O [Example 167, N-[5-(1-isopropyl-6-oxo-1,6-dihydro-3-pyridazinyl)-4-phenyl-2-pyrimidinyl]cyclopropanecarboxamide]	143 to 147 °C
COC(=O)Nc1ncc(-c2ccc(=O)n(C(C)C)n2)c(-c2ccccc2)n1 [Example 168, Methyl 5-(1-isopropyl-6-oxo-1,6-dihydro-3-pyridazinyl)-4-phenyl-2-pyrimidinylcarbamate]	197 to 200 °C
CC(C)n1nc(-c2cnc(NC(=O)c3ccccc3)nc2-c2ccccc2)ccc1=O [Example 169, N-[5-(1-isopropyl-6-oxo-1,6-dihydro-3-pyridazinyl)-4-phenyl-2-pyrimidinyl]benzamide]	116 to 120 °C
CC(C)n1nc(-c2cnc(NC(=O)c3ccc(Cl)cc3)nc2-c2ccccc2)ccc1=O [Example 171, 4-Chloro-N-[5-(1-isopropyl-6-oxo-1,6-dihydro-3-pyridazinyl)-4-phenyl-2-pyrimidinyl]benzamide]	100 °C
COc1ccc(C(=O)Nc2ncc(-c3ccc(=O)n(C(C)C)n3)c(-c3ccccc3)n2)cc1 [Example 172, N-[5-(1-isopropyl-6-oxo-1,6-dihydro-3-pyridazinyl)-4-phenyl-2-pyrimidinyl]-4-methoxybenzamide]	171 to 174 °C
Cc1ccc(C(=O)Nc2ncc(-c3ccc(=O)n(C(C)C)n3)c(-c3ccccc3)n2)cc1 [Example 173, N-[5-(1-isopropyl-6-oxo-1,6-dihydro-3-pyridazinyl)-4-phenyl-2-pyrimidinyl]-4-methylbenzamide]	116 °C
CC(C)n1nc(-c2cnc(NC(=O)c3ccc(C(F)(F)F)cc3)nc2-c2ccccc2)ccc1=O [Example 174, N-[5-(1-isopropyl-6-oxo-1,6-dihydro-3-pyridazinyl)-4-phenyl-2-pyrimidinyl]-4-(trifluoromethyl)benzamide]	160 to 163 °C
CC(C)n1nc(-c2cnc(NC(=O)c3cccnc3)nc2-c2ccccc2)ccc1=O [Example 175, N-[5-(1-isopropyl-6-oxo-1,6-dihydro-3-pyridazinyl)-4-phenyl-2-pyrimidinyl)nicotinamide]	163 to 167 °C
CC(C)n1nc(-c2cnc(NC(=O)C(C)(C)C)nc2-c2ccccc2)ccc1=O [Example 176, N-[5-(1-isopropyl-6-oxo-1,6-dihydro-3-pyridazinyl)-4-phenyl-2-pyrimidinyl]-2,2-dimethylpropanamide]	138 to 141 °C
CC(C)n1nc(-c2cnc(NC(=O)OCC(Cl)(Cl)Cl)nc2-c2ccccc2)ccc1=O [Example 177, 2,2,2-trichloroethyl 5-(1-isopropyl-6-oxo-1,6-dihydro-3-pyridazinyl)-4-phenyl-2-pyrimidinylcarbamate]	158 to 162 °C
CC(C)n1nc(-c2cnc(N(C(=O)c3ccccc3)C(=O)c3ccccc3)nc2-c2ccccc2)ccc1=O [Example 178, N-benzoyl-N-[5-(1-isopropyl-6-oxo-1,6-dihydro-3-pyridazinyl)-4-phenyl-2-pyrimidinyl]benzamide]	121 to 125 °C
CC(C)n1nc(-c2cnc(N(C(=O)c3ccc(F)cc3)C(=O)c3ccc(F)cc3)nc2-c2ccccc2)ccc1=O [Example 179, 4-Fluoro-N-(4-fluorobenzoyl)-N-[5-(1-isopropyl-6-oxo-1,6-dihydro-3-pyridazinyl)-4-phenyl-2-pyrimidinyl]benzamide]	148 to 151 °C
CC(C)n1nc(-c2cnc(N(C(=O)c3ccc(Cl)cc3)C(=O)c3ccc(Cl)cc3)nc2-c2ccccc2)ccc1=O [Example 180, 4-Chloro-N-(4-chlorobenzoyl)-N-[5-(1-isopropyl-6-oxo-1,6-dihydro-3-pyridazinyl)-4-phenyl-2-pyrimidinyl]benzamide]	110 °C
CC(C)n1nc(-c2cnc(N(C(=O)c3ccc(C(F)(F)F)cc3)C(=O)c3ccc(C(F)(F)F)cc3)nc2-c2ccccc2)ccc1=O [Example 183, N-[5-(1-isopropyl-6-oxo-1,6-dihydro-3-pyridazinyl)-4-phenyl-2-pyrimidinyl]-4-(trifluoromethyl)-N-[4-(trifluoromethyl)benzoyl]benzamide]	159 °C
CCOc1ccc(-c2nc(N)ncc2-c2ccc(=O)n(C(C)C)n2)cc1 [Example 188, 6-[2-amino-4-(4-ethoxyphenyl)-5-pyrimidinyl]-2-isopropyl-3(2H)-pyridazinone]	204 °C
CCOc1ccccc1-c1nc(N)ncc1-c1ccc(=O)n(C(C)C)n1 [Example 189, 6-[2-Amino-4-(2-ethoxyphenyl)-5-pyrimidinyl]-2-isopropyl-3(2H)-pyridazinone]	185 °C
CCOc1cccc(-c2nc(N)ncc2-c2ccc(=O)n(C(C)C)n2)c1 [Example 190, 6-[2-Amino-4-(3-ethoxyphenyl)-5-pyrimidinyl]-2-isopropyl-3(2H)-pyridazinone]	142 °C
CCCOc1ccc(-c2nc(N)ncc2-c2ccc(=O)n(C(C)C)n2)cc1 [Example 191, 6-[2-Amino-4-(4-propoxyphenyl)-5-pyrimidinyl]-2-isopropyl-3(2H)-pyridazinone]	175 °C
CCCOc1ccccc1-c1nc(N)ncc1-c1ccc(=O)n(C(C)C)n1 [Example 192, 6-[2-Amino-4-(2-propoxyphenyl)-5-pyrimidinyl]-2-isopropyl-3(2H)-pyridazinone]	145 °C

SMILES	melting point
CCCOc1cccc(-c2nc(N)ncc2-c2ccc(=O)n(C(C)C)n2)c1 [Example 193, 6-[2-Amino-4-(3-propoxyphenyl)-5-pyrimidinyl]-2-isopropyl-3(2H)-pyridazinone]	122 °C
CC(C)Oc1ccc(-c2nc(N)ncc2-c2ccc(=O)n(C(C)C)n2)cc1 [Example 194, 6-[2-Amino-4-(4-isopropoxyphenyl)-5-pyrimidinyl]-2-isopropyl-3(2H)-pyridazinone]	164 °C
CC(C)Oc1cccc(-c2nc(N)ncc2-c2ccc(=O)n(C(C)C)n2)c1 [Example 196, 6-[2-Amino-4-(3-isopropoxyphenyl)-5-pyrimidinyl]-2-isopropyl-3(2H)-pyridazinone]	143 °C
CCCCOc1ccc(-c2nc(N)ncc2-c2ccc(=O)n(C(C)C)n2)cc1 [Example 197, 6-[2-Amino-4-(4-butoxyphenyl)-5-pyrimidinyl]-2-isopropyl-3(2H)-pyridazinone]	143 °C
CCCCOc1ccccc1-c1nc(N)ncc1-c1ccc(=O)n(C(C)C)n1 [Example 198, 6-[2-Amino-4-(2-butoxyphenyl)-5-pyrimidinyl]-2-isopropyl-3(2H)-pyridazinone]	149 °C
CCCCOc1cccc(-c2nc(N)ncc2-c2ccc(=O)n(C(C)C)n2)c1 [Example 199, 6-[2-Amino-4-(3-butoxyphenyl)-5-pyrimidinyl]-2-isopropyl-3(2H)-pyridazinone]	130 °C
CC(C)COc1ccc(-c2nc(N)ncc2-c2ccc(=O)n(C(C)C)n2)cc1 [Example 200, 6-[2-Amino-4-(4-isobutoxyphenyl)-5-pyrimidinyl]-2-isopropyl-3(2H)-pyridazinone]	166 °C
CC(C)COc1ccccc1-c1nc(N)ncc1-c1ccc(=O)n(C(C)C)n1 [Example 201, 6-[2-Amino-4-(2-isobutoxyphenyl)-5-pyrimidinyl]-2-isopropyl-3(2H)-pyridazinone]	189 °C
CC(C)COc1cccc(-c2nc(N)ncc2-c2ccc(=O)n(C(C)C)n2)c1 [Example 202, 6-[2-Amino-4-(3-isobutoxyphenyl)-5-pyrimidinyl]-2-isopropyl-3(2H)-pyridazinone]	137 °C
CC(C)CCOc1ccccc1-c1nc(N)ncc1-c1ccc(=O)n(C(C)C)n1 [Example 204, 6-{2-Amino-4-(2-(isopentyloxy)phenyl]-5-pyrimidinyl}-2-isopropyl-3(2H)-pyridazinone]	155 °C
CC(C)CCOc1cccc(-c2nc(N)ncc2-c2ccc(=O)n(C(C)C)n2)c1 [Example 205, 6-{2-Amino-4-[3-(isopentyloxy)phenyl]-5-pyrimidinyl}-2-isopropyl-3(2H)-pyridazinone]	97 °C
CCCCCCOc1ccc(-c2nc(N)ncc2-c2ccc(=O)n(C(C)C)n2)cc1 [Example 206, 6-{2-Amino-4-[4-(hexyloxy)phenyl]-5-pyrimidinyl}-2-isopropyl-3(2H)-pyridazinone]	184 °C
CCCCCCOc1ccccc1-c1nc(N)ncc1-c1ccc(=O)n(C(C)C)n1 [Example 207, 6-{2-Amino-4-[2-(hexyloxy)phenyl]-5-pyrimidinyl}-2-isopropyl-3(2H)-pyridazinone]	92 °C
CCCCCCOc1cccc(-c2nc(N)ncc2-c2ccc(=O)n(C(C)C)n2)c1 [Example 208, 6-{2-Amino-4-[3-(hexyloxy)phenyl]-5-pyrimidinyl}-2-isopropyl-3(2H)-pyridazinone]	121 °C
CC(C)n1nc(-c2cnc(N)nc2-c2ccc(OCCF)cc2)ccc1=O [Example 209, 6-{2-Amino-4-[4-(2-fluoroethoxy)phenyl]-5-pyrimidinyl}-2-isopropyl-3(2H)-pyridazinone]	200 °C
CC(C)n1nc(-c2cnc(N)nc2-c2ccccc2OCCF)ccc1=O [Example 210, 6-{2-Amino-4-[2-(2-fluoroethoxy)phenyl]-5-pyrimidinyl}-2-isopropyl-3(2H)-pyridazinone]	171 °C
CC(C)n1nc(-c2cnc(N)nc2-c2cccc(OCCF)c2)ccc1=O [Example 211, 6-{2-Amino-4-[3-(2-fluoroethoxy)phenyl]-5-pyrimidinyl}-2-isopropyl-3(2H)-pyridazinone]	123 °C
CC(C)n1nc(-c2cnc(N)nc2-c2ccccc2OCCCF)ccc1=O [Example 215, 6-{2-Amino-4-[2-(3-fluoropropoxy)phenyl]-5-pyrimidinyl}-2-isopropyl-3(2H)-pyridazinone]	200 °C
CC(C)n1nc(-c2cnc(N)nc2-c2cccc(OCCCF)c2)ccc1=O [Example 216, 6-{2-Amino-4-[3-(3-fluoropropoxy)phenyl]-5-pyrimidinyl}-2-isopropyl-3(2H)-pyridazinone]	123 °C
